Where two headings read alike, the source gives them in different places.
Key:
[1] = tested on: BRK; settings: Figure 1; reference not given; read-out: BRK in vitro IC50; cited from earlier work
[2] = target: T1, STK10 (Homo sapiens, UniProt O94804); settings: Figure 1; reference not given; read-out: STK10 in vitro IC50; cited from earlier work
T1 construct: purchased in-house DSF kinase panel (SGC-style construct names; the trailing letter is the construct ID)

[3] = tested on: TIE2; settings: Figure 1; reference not given; read-out: TIE2 in vitro IC50; cited from earlier work
[4] = target: T2, SLK (Homo sapiens, UniProt Q9H2G2); test: DSF Tm panel; format: binding; design: purchased in-house DSF kinase panel (SGC-style construct names; the trailing letter is the construct ID); settings: 10 μM compound
[5] = target: T1, STK10; test: DSF Tm panel; format: binding; settings: 10 μM compound
[6] = target: T1, STK10; test: PhosphoSens in vitro activity assay; format: biochemical; settings: ATP 160 μM
[7] = target: T2, SLK; test: PhosphoSens in vitro activity assay; format: biochemical; settings: ATP 150 μM
[8] = target: T2, SLK; test: NanoBRET target engagement assay; format: cell-based; design: has a greater impact on the full-length protein than on the kinase domains; host or cells: HEK293T (ATCC CRL-3216); settings: HEK293T cells

T1 sequence (O94804 18-317 limits assumed): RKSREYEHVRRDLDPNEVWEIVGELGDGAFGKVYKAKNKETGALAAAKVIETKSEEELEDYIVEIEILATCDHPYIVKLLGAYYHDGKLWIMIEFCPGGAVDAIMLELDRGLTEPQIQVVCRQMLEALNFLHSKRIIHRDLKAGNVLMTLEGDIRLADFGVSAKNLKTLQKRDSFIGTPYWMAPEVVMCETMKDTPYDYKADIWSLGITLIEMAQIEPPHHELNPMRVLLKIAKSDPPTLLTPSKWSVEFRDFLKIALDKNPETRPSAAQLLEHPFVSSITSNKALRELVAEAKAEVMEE

| SMILES | IC50 [1] | IC50 [2] | IC50 [3] | ΔTm at 10 µM [4] | ΔTm at 10 µM [5] | IC50 [6] | IC50 [7] | EC50 [8] |
| --- | --- | --- | --- | --- | --- | --- | --- | --- |
| COc1ccc2cc(-c3c(-c4ccncc4)nc(-c4ccc(S(C)(=O)=O)cc4C)n3C)ccc2c1 [SB-633825 (3), SB-633825] | 150 nM | 66 nM | 3.5 nM |  |  |  |  |  |
| Cc1cc(F)ccc1CNC(=O)Nc1ccc2cc1OCCOCCNc1ccn3ncc-2c3n1 [compound 22] |  |  |  | 3.7 °C | 8.3 °C | 3160 ± 670 nM | 3130 ± 930 nM | > 50000 nM |
| Cc1cc(C(F)(F)F)ccc1CNC(=O)Nc1ccc2cc1OCCOCCNc1ccn3ncc-2c3n1 [compound 25] |  |  |  | 3.8 °C | 9 °C | 1070 ± 110 nM | 2690 ± 510 nM | > 50000 nM |
